Results published in ChEMBL document CHEMBL3046506 (2006).

tested on: Pyricularia oryzae; assay: Antifungal activity against wild type Magnaporthe oryzae Hoku-1 in rice seedlings assessed as preventive value of rice blast at 5 ug/ml systemic application at 22 to 30 degC by pot test; format: functional

SMILES	Activity
CCC1(C(=O)NCCc2cnc(Cl)s2)C(C)C1(Cl)Cl (stereo not given)	40%
CC1C(Cl)(Cl)C1(C)C(=O)NCCc1csc(Cl)c1 (stereo not given)	40%
CC1(C)C(C(=O)NCCc2csc(Cl)c2)C1(Cl)Cl (stereo not given)	<40%
CC1(C)C(Cl)(Cl)C1(C)C(=O)NCCc1csc(Cl)c1 (stereo not given)	40%
CC(C)C1(C(=O)NCCc2csc(Cl)c2)CC1(Cl)Cl (stereo not given)	40%
CCCC1(C(=O)NCCc2csc(Cl)c2)CC1(Cl)Cl (stereo not given)	<40%
CC(C)(C)C(C#N)C(=O)NCCc1csc(Cl)c1 (stereo not given)	65%
CC(C)(C)C(Cl)C(=O)NCCc1csc(Cl)c1 (stereo not given)	40%
CC(C)(C)C(Br)C(=O)NCCc1csc(Cl)c1 (stereo not given)	40%
CCC1(C(=O)NCCc2ccc(F)cc2F)C(C)C1(Cl)Cl (stereo not given)	40%
CCC1(C(=O)NCCc2ccc(C(F)(F)F)cc2)C(C)C1(Cl)Cl (stereo not given)	40%
CCC1(C(=O)NCCc2ccccc2Cl)C(C)C1(Cl)Cl (stereo not given)	40%
CCC1(C(=O)NCCc2cccc(Cl)c2)C(C)C1(Cl)Cl (stereo not given)	40%
CCC1(C(=O)NCCc2ccc(Cl)cc2Cl)C(C)C1(Cl)Cl (stereo not given)	40%
CCC1(C(=O)NCCc2ccc(Cl)c(Cl)c2)C(C)C1(Cl)Cl (stereo not given)	40%
CCC1(C(=O)NCCc2ccc(Br)cc2)C(C)C1(Cl)Cl (stereo not given)	<40%
CCC1(C(=O)NCCc2ccc(C)cc2)C(C)C1(Cl)Cl (stereo not given)	<40%
CCC1(C(=O)NCCc2ccsc2)C(C)C1(Cl)Cl (stereo not given)	<=40%
CCC1(C(=O)NCCc2csc(Cl)c2)C(C)C1(Cl)Cl (stereo not given)	65%
CCC1(C(=O)NCCc2cc(Cl)cs2)C(C)C1(Cl)Cl (stereo not given)	40%
CCC1(C(=O)NCCc2ccc(Cl)s2)C(C)C1(Cl)Cl (stereo not given)	40%
CCC1(C(=O)NCCc2csc(Br)c2)C(C)C1(Cl)Cl (stereo not given)	<40%
CCC1(C(=O)NCCc2cc(Cl)sc2Cl)C(C)C1(Cl)Cl (stereo not given)	<40%

SMILES	Activity
CCC1(C(=O)NCCc2cc(Cl)c(Cl)s2)C(C)C1(Cl)Cl (stereo not given)	40%
CCC1(C(=O)NC(C)c2cc(Cl)cs2)C(C)C1(Cl)Cl (stereo not given)	<=40%
CCC1(C(=O)NC(C)c2ccc(Cl)s2)C(C)C1(Cl)Cl (stereo not given)	<=40%
CCC1(C(=O)NC(C)c2csc(Cl)c2)C(C)C1(Cl)Cl (stereo not given)	40%
CCC1(C(=O)NC(C)c2cc(Cl)c(Cl)s2)C(C)C1(Cl)Cl (stereo not given)	<=40%
CCC1(C(=O)NCCc2csc(Cl)n2)C(C)C1(Cl)Cl (stereo not given)	40%
CCC1(C(=O)NC(C)C)C(C)C1(Cl)Cl (stereo not given)	<40%
CCC(C)NC(=O)C1(CC)C(C)C1(Cl)Cl (stereo not given)	<40%
CCC1(C(=O)NCCC(F)(F)F)C(C)C1(Cl)Cl (stereo not given)	<40%
CCC1(C(=O)NC(C)C2CCC2)C(C)C1(Cl)Cl (stereo not given)	<40%
CCC1(C(=O)NC(C)C2CCCC2)C(C)C1(Cl)Cl (stereo not given)	40%
CCC1(C(=O)NC(C)C2CCCCC2)C(C)C1(Cl)Cl (stereo not given)	<40%
CCC1(C(=O)NC(C)C2CCCCCC2)C(C)C1(Cl)Cl (stereo not given)	<40%
CCC1(C(=O)Nc2ccc(Cl)cc2)C(C)C1(Cl)Cl (stereo not given)	<40%
CCC1(C(=O)NCc2ccc(Cl)cc2)C(C)C1(Cl)Cl (stereo not given)	40%
CCC1(C(=O)NCCc2ccc(Cl)cc2)C(C)C1(Cl)Cl (stereo not given)	40%
CCC1(C(=O)NCCCc2ccc(Cl)cc2)C(C)C1(Cl)Cl (stereo not given)	40%
CCC(NC(=O)C1(CC)C(C)C1(Cl)Cl)c1ccc(Cl)cc1 (stereo not given)	<40%
CCC1(C(=O)NCC(C)c2ccc(Cl)cc2)C(C)C1(Cl)Cl (stereo not given)	40%
CCC1(C(=O)NC(C)Cc2ccc(Cl)cc2)C(C)C1(Cl)Cl (stereo not given)	<40%
CCC1(C(=O)NCCc2ccc(F)cc2)C(C)C1(Cl)Cl (stereo not given)	40%
CC[C@@]1(C(=O)N[C@H](C)c2ccc(Cl)cc2)[C@@H](C)C1(Cl)Cl (mixture of isomers) [CARPROPAMIDE]	>90%

tested on: Pyricularia oryzae; assay: Antifungal activity against wild type Magnaporthe oryzae Hoku-1 in rice seedlings assessed as preventive value of rice blast at 5 ug/ml foliar spray at 26 degC by pot test; format: functional

SMILES	Activity
CCC1(C(=O)NCCc2cnc(Cl)s2)C(C)C1(Cl)Cl (stereo not given)	40%
CC1C(Cl)(Cl)C1(C)C(=O)NCCc1csc(Cl)c1 (stereo not given)	40%
CC1(C)C(C(=O)NCCc2csc(Cl)c2)C1(Cl)Cl (stereo not given)	<40%
CC1(C)C(Cl)(Cl)C1(C)C(=O)NCCc1csc(Cl)c1 (stereo not given)	40%
CC(C)C1(C(=O)NCCc2csc(Cl)c2)CC1(Cl)Cl (stereo not given)	40%
CCCC1(C(=O)NCCc2csc(Cl)c2)CC1(Cl)Cl (stereo not given)	<40%
CC(C)(C)C(C#N)C(=O)NCCc1csc(Cl)c1 (stereo not given)	40%
CC(C)(C)C(Cl)C(=O)NCCc1csc(Cl)c1 (stereo not given)	40%
CC(C)(C)C(Br)C(=O)NCCc1csc(Cl)c1 (stereo not given)	40%
CCC1(C(=O)NCCc2ccc(F)cc2F)C(C)C1(Cl)Cl (stereo not given)	40%
CCC1(C(=O)NCCc2ccc(C(F)(F)F)cc2)C(C)C1(Cl)Cl (stereo not given)	40%
CCC1(C(=O)NCCc2ccccc2Cl)C(C)C1(Cl)Cl (stereo not given)	40%
CCC1(C(=O)NCCc2cccc(Cl)c2)C(C)C1(Cl)Cl (stereo not given)	40%
CCC1(C(=O)NCCc2ccc(Cl)cc2Cl)C(C)C1(Cl)Cl (stereo not given)	40%
CCC1(C(=O)NCCc2ccc(Cl)c(Cl)c2)C(C)C1(Cl)Cl (stereo not given)	40%
CCC1(C(=O)NCCc2ccc(Br)cc2)C(C)C1(Cl)Cl (stereo not given)	<=40%
CCC1(C(=O)NCCc2ccc(C)cc2)C(C)C1(Cl)Cl (stereo not given)	<40%
CCC1(C(=O)NCCc2ccsc2)C(C)C1(Cl)Cl (stereo not given)	40%
CCC1(C(=O)NCCc2csc(Cl)c2)C(C)C1(Cl)Cl (stereo not given)	65%
CCC1(C(=O)NCCc2cc(Cl)cs2)C(C)C1(Cl)Cl (stereo not given)	40%
CCC1(C(=O)NCCc2ccc(Cl)s2)C(C)C1(Cl)Cl (stereo not given)	40%
CCC1(C(=O)NCCc2csc(Br)c2)C(C)C1(Cl)Cl (stereo not given)	40%
CCC1(C(=O)NCCc2cc(Cl)sc2Cl)C(C)C1(Cl)Cl (stereo not given)	40%

SMILES	Activity
CCC1(C(=O)NCCc2cc(Cl)c(Cl)s2)C(C)C1(Cl)Cl (stereo not given)	<=40%
CCC1(C(=O)NC(C)c2cc(Cl)cs2)C(C)C1(Cl)Cl (stereo not given)	<=40%
CCC1(C(=O)NC(C)c2ccc(Cl)s2)C(C)C1(Cl)Cl (stereo not given)	<=40%
CCC1(C(=O)NC(C)c2csc(Cl)c2)C(C)C1(Cl)Cl (stereo not given)	<=40%
CCC1(C(=O)NC(C)c2cc(Cl)c(Cl)s2)C(C)C1(Cl)Cl (stereo not given)	40%
CCC1(C(=O)NCCc2csc(Cl)n2)C(C)C1(Cl)Cl (stereo not given)	40%
CCC1(C(=O)NC(C)C)C(C)C1(Cl)Cl (stereo not given)	<40%
CCC(C)NC(=O)C1(CC)C(C)C1(Cl)Cl (stereo not given)	<40%
CCC1(C(=O)NCCC(F)(F)F)C(C)C1(Cl)Cl (stereo not given)	<40%
CCC1(C(=O)NC(C)C2CCC2)C(C)C1(Cl)Cl (stereo not given)	<40%
CCC1(C(=O)NC(C)C2CCCC2)C(C)C1(Cl)Cl (stereo not given)	<40%
CCC1(C(=O)NC(C)C2CCCCC2)C(C)C1(Cl)Cl (stereo not given)	<40%
CCC1(C(=O)NC(C)C2CCCCCC2)C(C)C1(Cl)Cl (stereo not given)	<40%
CCC1(C(=O)Nc2ccc(Cl)cc2)C(C)C1(Cl)Cl (stereo not given)	<40%
CCC1(C(=O)NCc2ccc(Cl)cc2)C(C)C1(Cl)Cl (stereo not given)	<=40%
CCC1(C(=O)NCCc2ccc(Cl)cc2)C(C)C1(Cl)Cl (stereo not given)	40%
CCC1(C(=O)NCCCc2ccc(Cl)cc2)C(C)C1(Cl)Cl (stereo not given)	40%
CCC(NC(=O)C1(CC)C(C)C1(Cl)Cl)c1ccc(Cl)cc1 (stereo not given)	<=40%
CCC1(C(=O)NCC(C)c2ccc(Cl)cc2)C(C)C1(Cl)Cl (stereo not given)	40%
CCC1(C(=O)NC(C)Cc2ccc(Cl)cc2)C(C)C1(Cl)Cl (stereo not given)	<40%
CCC1(C(=O)NCCc2ccc(F)cc2)C(C)C1(Cl)Cl (stereo not given)	40%
CC[C@@]1(C(=O)N[C@H](C)c2ccc(Cl)cc2)[C@@H](C)C1(Cl)Cl (mixture of isomers) [CARPROPAMIDE]	>90%
